What was measured:
[1] = biological target: T1, Nischarin (Rattus norvegicus, UniProt Q4G017); test: Displacement of [3H]clonidine from imidazoline I1 receptor in Sprague-Dawley rat kidney by liquid scintillation counting
[2] = Displacement of [3H]2BFI from imidazoline I2 receptor in Sprague-Dawley rat brain by liquid scintillation counting
[3] = biological target: T2, Adrenergic receptor alpha-2 (Rattus norvegicus, UniProt P22086+P19328+P22909); test: Displacement of [3H]RX821002 from alpha2 adrenoceptor in Sprague-Dawley rat kidney by liquid scintillation counting; assay type: tissue-based
T2 sequence (P22086 whole entry): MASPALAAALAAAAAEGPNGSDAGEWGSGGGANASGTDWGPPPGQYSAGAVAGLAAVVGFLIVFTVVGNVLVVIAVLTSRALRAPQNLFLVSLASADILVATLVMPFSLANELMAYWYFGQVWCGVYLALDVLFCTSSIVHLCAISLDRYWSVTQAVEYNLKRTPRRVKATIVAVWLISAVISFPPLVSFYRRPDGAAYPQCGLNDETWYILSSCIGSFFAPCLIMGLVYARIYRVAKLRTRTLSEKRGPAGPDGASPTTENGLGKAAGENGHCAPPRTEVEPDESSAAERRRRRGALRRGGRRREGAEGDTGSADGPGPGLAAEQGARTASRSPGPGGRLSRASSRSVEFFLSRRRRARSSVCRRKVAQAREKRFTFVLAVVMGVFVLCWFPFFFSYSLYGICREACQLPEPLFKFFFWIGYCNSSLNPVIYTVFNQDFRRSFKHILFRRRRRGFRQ
T2 sequence (P19328 whole entry): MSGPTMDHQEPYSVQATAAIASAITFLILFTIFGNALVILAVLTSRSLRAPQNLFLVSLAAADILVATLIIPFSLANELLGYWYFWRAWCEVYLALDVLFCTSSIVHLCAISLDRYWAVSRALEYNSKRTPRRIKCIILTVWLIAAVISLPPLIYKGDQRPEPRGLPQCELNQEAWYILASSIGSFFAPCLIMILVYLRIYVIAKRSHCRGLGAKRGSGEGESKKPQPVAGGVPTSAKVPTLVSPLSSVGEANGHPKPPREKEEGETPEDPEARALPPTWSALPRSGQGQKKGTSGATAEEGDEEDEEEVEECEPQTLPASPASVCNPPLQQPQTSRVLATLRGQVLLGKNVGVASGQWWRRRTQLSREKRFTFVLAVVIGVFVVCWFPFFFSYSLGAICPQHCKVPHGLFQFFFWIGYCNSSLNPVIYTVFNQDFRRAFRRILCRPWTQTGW
T2 sequence (P22909 whole entry): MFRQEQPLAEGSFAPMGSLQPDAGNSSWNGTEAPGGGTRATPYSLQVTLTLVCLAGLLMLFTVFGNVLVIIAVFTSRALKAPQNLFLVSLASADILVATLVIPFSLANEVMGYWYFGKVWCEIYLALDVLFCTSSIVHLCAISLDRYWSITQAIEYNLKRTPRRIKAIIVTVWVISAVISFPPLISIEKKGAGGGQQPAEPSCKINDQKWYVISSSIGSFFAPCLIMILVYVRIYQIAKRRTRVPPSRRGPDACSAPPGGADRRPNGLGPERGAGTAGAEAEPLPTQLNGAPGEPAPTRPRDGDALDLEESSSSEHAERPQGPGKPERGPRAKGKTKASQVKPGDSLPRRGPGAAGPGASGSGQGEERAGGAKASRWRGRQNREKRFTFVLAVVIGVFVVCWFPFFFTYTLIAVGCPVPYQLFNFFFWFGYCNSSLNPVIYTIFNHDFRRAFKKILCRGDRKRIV

[4] = biological target: T1, Nischarin; test: Displacement of [3H]clonidine from imidazoline I1 receptor in Wistar rat kidney by liquid scintillation counting
[5] = Displacement of [3H]2BFI from imidazoline I2 receptor in Wistar rat brain by liquid scintillation counting
[6] = biological target: T2, Adrenergic receptor alpha-2; test: Displacement of [3H]RX821002 from alpha2 adrenoceptor in Wistar rat kidney by liquid scintillation counting; assay type: tissue-based

T1 sequence (Q4G017 whole entry): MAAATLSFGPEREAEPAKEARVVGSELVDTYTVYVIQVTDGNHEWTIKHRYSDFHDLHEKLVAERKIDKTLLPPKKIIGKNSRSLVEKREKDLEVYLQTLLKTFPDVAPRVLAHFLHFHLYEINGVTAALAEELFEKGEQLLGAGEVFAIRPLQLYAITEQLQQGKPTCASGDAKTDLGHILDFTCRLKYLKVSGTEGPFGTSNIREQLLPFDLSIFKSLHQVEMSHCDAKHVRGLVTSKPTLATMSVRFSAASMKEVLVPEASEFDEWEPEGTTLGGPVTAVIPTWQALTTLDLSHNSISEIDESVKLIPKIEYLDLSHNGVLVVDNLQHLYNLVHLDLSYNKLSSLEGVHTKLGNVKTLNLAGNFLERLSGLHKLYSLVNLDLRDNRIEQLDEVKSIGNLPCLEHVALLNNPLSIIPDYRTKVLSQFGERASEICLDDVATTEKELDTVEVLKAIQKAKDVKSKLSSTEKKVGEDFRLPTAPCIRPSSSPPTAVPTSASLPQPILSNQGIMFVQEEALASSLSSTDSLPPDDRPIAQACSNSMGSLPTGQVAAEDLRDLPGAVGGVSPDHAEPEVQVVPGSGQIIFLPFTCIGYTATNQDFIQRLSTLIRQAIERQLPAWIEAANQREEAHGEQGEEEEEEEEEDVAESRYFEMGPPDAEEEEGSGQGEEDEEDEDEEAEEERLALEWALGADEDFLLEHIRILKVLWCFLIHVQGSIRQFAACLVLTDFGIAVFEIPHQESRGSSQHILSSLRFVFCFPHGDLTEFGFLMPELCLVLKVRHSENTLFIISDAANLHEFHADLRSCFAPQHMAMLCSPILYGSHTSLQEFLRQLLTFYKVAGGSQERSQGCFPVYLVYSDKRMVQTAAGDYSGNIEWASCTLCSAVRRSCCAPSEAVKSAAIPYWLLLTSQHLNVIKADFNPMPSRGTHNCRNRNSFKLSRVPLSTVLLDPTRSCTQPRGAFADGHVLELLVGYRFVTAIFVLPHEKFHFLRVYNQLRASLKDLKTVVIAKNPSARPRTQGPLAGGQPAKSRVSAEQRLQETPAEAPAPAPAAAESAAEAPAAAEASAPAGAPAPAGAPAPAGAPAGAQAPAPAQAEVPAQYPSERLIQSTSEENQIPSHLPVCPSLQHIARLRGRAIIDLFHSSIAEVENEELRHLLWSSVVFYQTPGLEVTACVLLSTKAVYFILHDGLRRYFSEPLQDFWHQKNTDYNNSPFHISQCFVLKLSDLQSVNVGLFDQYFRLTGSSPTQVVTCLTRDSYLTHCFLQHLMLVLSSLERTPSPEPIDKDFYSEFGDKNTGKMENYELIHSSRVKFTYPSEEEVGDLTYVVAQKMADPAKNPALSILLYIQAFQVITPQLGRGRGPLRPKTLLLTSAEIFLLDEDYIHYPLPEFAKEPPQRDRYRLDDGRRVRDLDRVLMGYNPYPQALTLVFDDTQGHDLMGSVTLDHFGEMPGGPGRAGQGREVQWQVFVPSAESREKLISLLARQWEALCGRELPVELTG

| IC50 [1] | Ki [2] | Ki [3] | Structure (SMILES) | IC50 [4] | Ki [5] | Ki [6] |
| --- | --- | --- | --- | --- | --- | --- |
| 235 µM | > 100 µM | > 100 µM | Br.CC(=O)NCC[C@H]1CN=C(N)N1 | – | – | – |
| 0.477 µM | 55 µM | 11.77 µM | Br.NCC[C@H]1CN=C(N)N1 | – | – | – |
| 0.366 µM | 0.364 µM | – | Clc1cccc(Cl)c1NC1=NCCN1 [CLONIDINE] | – | – | – |
| 213 µM | > 100 µM | > 100 µM | CC(=O)NCC[C@H]1CN=CN1.CC(=O)O | – | – | – |
| 115 µM | 1.84 µM | 76.44 µM | Br.CC1=NC[C@H](CCN)N1 | – | – | – |
| 44.8 µM | > 100 µM | > 52.86 µM | Br.CN(C)CC[C@H]1CN=C(N)N1 | – | – | – |
| > 100 µM | > 100 µM | 18.82 µM | Br.NCC[C@@H]1CN=C(N)N1 | – | – | – |
| – | – | – | NCCCCN=C(N)N [AGMATINE] | 36.5 µM | 417 µM | 31.7 µM |
| 64 µM | > 100 µM | > 100 µM | CN(C)CC[C@H]1CN=CN1.Cl.Cl | – | – | – |
| 383 µM | > 100 µM | > 100 µM | Br.CC(=O)NCC[C@@H]1CN=C(N)N1 | – | – | – |

| Structure (SMILES) | IC50 [1] | Ki [2] | Ki [3] | IC50 [4] | Ki [5] | Ki [6] |
| --- | --- | --- | --- | --- | --- | --- |
| Br.NCC[C@H]1CN=CN1 | > 100 µM | 65.8 µM | > 100 µM | – | – | – |
| Br.NCC[C@@H]1CN=CN1 | 16.5 µM | > 100 µM | 62.07 µM | – | – | – |

From ChEMBL document CHEMBL1143281, “New analogues of agmatine with higher affinity to imidazoline receptors” (Bioorg Med Chem Lett, 2009)
